# Laboratory results: patent publication EP3050567B1, “COMPOUND FOR ACTIVATING AMPK AND USES THEREOF” (Energenesis Biomedical Co., Ltd., priority 2013, dated 2015)
# How the values were obtained:
# AMPK [1] = experiment: AMPK activation assay (phospho-AMPK Thr172 western blot) in MCF7 cells; assay type: cell-based, human; conditions: 30 min
# Method: (§1) Effects of adenine on AMPK activation were evaluated based on the phosphorylation of AMPK protein upon adenine treatment. Mouse muscle cell C2C12, mouse fibroblast 3T3, human liver carcinoma cell Hep G2, human breast adenocarcinoma cell line MCF7 and human colon adenocarcinoma grade II cell line HT29, human umbilical vein endothelial cell HUVEC, Human acute monocytic leukemiacell THP1, human macrophage cell U937, murine microglia cell BV-2, and mouse neuroblastoma cell Neuro2A and dermal papilla cell were cultured in high-glucose Dulbecco's modified Eagle's medium (DMEM) containing 10% fetal bovine serum (FBS), 4 mM L-glutamine, 2 mM sodium pyruvate and 1% penicillin/streptomycin (Invitrogen GibcoBRL, Carlsbad, Calif., USA) at 37°C, under 5% CO2. Cells were plated at 3 × 10^5 per well in 6-well plates. Twenty-four hours after plating, adenine was added to the culture media as indicated. After 30 min cells were lysed and subject to western blot analysis. Equal amount of protein from each sample was separated by SDS-PAGE and then electroblotted on to PVDF membranes. Membranes were blocked with 3% BSA in PBS for 60 min and incubated with an anti-phospho-AMPK (Thr172) antibody (1:2,000, Cell signaling) or an anti-AMPK antibody (1:2,000, Cell signaling) at 4°C for 16 h followed by the corresponding secondary antibody for 1 h at room temperature (RT). Immunoreactive bands were detected by enhanced chemiluminescence and recorded using Kodak film. The detected signals were scanned and then quantified using TotalLab Quant software (TotalLab).
# AMPK [2] = experiment: AMPK activation assay (phospho-AMPK Thr172 western blot) in THP1 cells; assay type: cell-based, Human; conditions: 30 min
# Method: as §1
# high-fat diet-fed mice = experiment: Anti-diabetic effects in high-fat diet-fed mice; assay type: in vivo, C57BL/6J mice; conditions: adenine 0.1 to 50 mg/kg IP twice a day for 6 days, compared to control group
# Method: To further evaluate the effects of adenine on the modulation of plasma glucose level, the high-fat diet-fed mice were served as a type 2 diabetes animal model. C57BL/6J mice were maintained at 22°C under a 12-h light/dark cycle and fed either a high fat diet (60% kcal% fat) or a normal diet ad libitum. Intraperitoneal injections of adenine (0.1 to 50 mg/kg) or vehicle were given to the high-fat diet-fed mice from the age of 24 weeks and glucose readings were measure at 1 and 3 hr. IP administration of adenine or vehicle only to the high-fat diet-fed mice continued twice a day for 6 days. On day 6, plasma was collected 1 hr after the last dosing for analyzing, evaluating, measuring plasma glucose and triglycerides.
# TNFα = experiment: LPS-induced inflammatory response in THP1 macrophages, secreted TNFα (ELISA); assay type: cell-based, human; conditions: 50 ng LPS 6 hr
# Method: Effects of adenine on inflammatory response were evaluated in human THP1 macrophage by examining protein level of intracellular COX-2 and secreted TNFα, IL-1β and IL-6. Differentiation of THP1 monocytes into macrophages was induced by 50 nM PMA for 24 hr. THP1 macrophages were further stimulated by 50 ng LPS for 6 hr in the presence of 10-600 µM of adenine or vehicle followed by cell lysis and western blot analysis. Equal amounts of protein were separated by SDS-PAGE and then electroblotted on to PVDF membranes. Membranes were blocked with 3% BSA in PBS for 60 min and incubated with an anti-COX-2 antibody (1:1,000, Cell signaling), an anti-actin antibody (1:5,000, Cell signaling) at 4° C for 16 h followed by the corresponding secondary antibody for 1 h at room temperature (RT). Immunoreactive bands were detected by enhanced chemiluminescence and recorded using Kodak film. The detected signals were scanned and then quantified using TotalLab Quant software (TotalLab). The secreted TNFα, IL-1β and IL-6 were analyzed by enzyme-linked immunosorbent assays.
# [3] = tested on: TNBS-induced inflammatory bowel disease (IBD) mice model; experiment: TNBS induced inflammation in vivo (relapsing colitis); set-up: species or system C57BL/6J mice; conditions: daily IP adenine 0.01, 0.1, 5 or 30 mg/kg
# Method: To further evaluate the effects of adenine on inflammatory response, TNBS-induced inflammatory bowel disease (IBD) mice model was used. C57BL/6J mice were maintained at 22° C, under a 12-h light/dark cycle. Relapsing colitis was induced with five escalating doses of TNBS, 0.5 mg, 0.75 mg, 1.0 mg, 1.25 mg, and 1.5 mg, in 50% ethanol were administered respectively for 0.1 mL per mouse weekly. After the third administration of TNBS, daily intraperitoneal injection of adenine (0.01, 0.1, 5 or 30 mg/kg body weight) or saline were given to mice. Two days after the fifth TNBS administration, mice were sacrificed. The inflammatory cytokines including TNF, INFγ and IL-17 from colonic lysates were evaluated by enzyme-linked immunosorbent assays.
# Amyloid β peptide = Amyloid β peptide assay in Neuro2A cells transfected with human APP695 (western blot); assay type: cell-based, mouse; conditions: 24 h
# Method: Effects of adenine on Amyloid β peptide were analyzed in mouse neuroblastoma cell Neuro2A. Neuro2A cells were cultured in high-glucose Dulbecco's modified Eagle's medium (DMEM) containing 10% fetal bovine serum (FBS), 4 mM L-glutamine, 2 mM sodium pyruvate and 1% penicillin/streptomycin (Invitrogen GibcoBRL, Carlsbad, Calif., USA) at 37°C under 5% CO2. Cells were plated at 3 × 10^5 per well (6-well plate). 24 h after plating, cells were transfected with human APP695 and treated with indicated concentration of adenine for 24 h followed by cell lysis and western blot analysis. Equal amounts of protein were separated by SDS-PAGE and then electroblotted on to PVDF membranes. Membranes were blocked with 3% BSA in PBS for 60 min and incubated with an anti-Aβ antibody (1:1,000, abcam), an anti-LC3 antibody (1:1,000, Cell signaling), and an anti-actin antibody (1:5,000, Cell signaling) at 4°C for 16 h followed by the corresponding secondary antibody for 1 h at room temperature (RT). Immunoreactive bands were detected by enhanced chemiluminescence and recorded using Kodakfilm. The detected signals were scanned and then quantified by using TotalLab Quant software (TotalLab).
# [4] = colonic lysates, dose-dependent, vs non-adenine treated mice
structure (smiles),measurement,setting,value
"Nc1ncnc2nc[nH]c12 [Adenine, adenine]",AMPK activation (fold to control),AMPK [1]; adenine 1 microM,1.2 fold to control
same,AMPK activation (fold to control),AMPK [1]; adenine 10 microM,1.6 fold to control
same,AMPK activation (fold to control),AMPK [1]; adenine 100 microM,2.5 fold to control
same,AMPK activation (fold to control),AMPK [1]; adenine 200 microM,3.4 fold to control
same,AMPK activation (fold to control),AMPK [1]; adenine 600 microM,3.7 fold to control
same,AMPK activation (fold to control),AMPK [2]; adenine 1 microM,1.2 fold to control
same,AMPK activation (fold to control),AMPK [2]; adenine 10 microM,2.2 fold to control
same,AMPK activation (fold to control),AMPK [2]; adenine 100 microM,3.7 fold to control
same,AMPK activation (fold to control),AMPK [2]; adenine 200 microM,4.3 fold to control
same,AMPK activation (fold to control),AMPK [2]; adenine 600 microM,4.2 fold to control
same,lower body weight,high-fat diet-fed mice,more than 15%
same,lower plasma glucose,high-fat diet-fed mice,> 30%
same,lower plasma triacylglycerides,high-fat diet-fed mice,more than 35%
same,lower plasma glucose,high-fat diet-fed mice; listed as adenine,more than 30%
same,TNFα (% to control),TNFα; adenine 10 microM,85±9.1 % to control
same,TNFα (% to control),TNFα; adenine 100 microM,41±2.6 % to control
same,TNFα (% to control),TNFα; adenine 600 microM,23±1.8 % to control
same,body weight loss caused by TNBS,[3],rescued the body weight loss
same,level of IL-17 in colon,[3]; [4],significantly reduced
same,level of INFγ in colon,[3]; [4],significantly reduced
same,level of TNF in colon,[3]; [4],significantly reduced
same,sAβ level (% of control),"Amyloid β peptide; Neuro2A cells transfected with human APP695, adenine 10 microM",89 ± 7.5 % of control
same,sAβ level (% of control),"Amyloid β peptide; Neuro2A cells transfected with human APP695, adenine 20 microM",63 ± 2.2 % of control
same,sAβ level (% of control),"Amyloid β peptide; Neuro2A cells transfected with human APP695, adenine 30 microM",48.1 ± 1.7 % of control
same,sAβ level (% of control),"Amyloid β peptide; Neuro2A cells transfected with human APP695, adenine 40 microM",31.7 ± 5.1 % of control
same,sAβ level (% of control),"Amyloid β peptide; Neuro2A cells transfected with human APP695, adenine 50 microM",29.4 ± 3.6 % of control
